Measurements taken from DBAASP.
Values after ≈ are worked out from the molar mass of the structure shown. Values joined by “and” are separate entries in the source; they are usually repeats but may differ in a detail not shown here. Equal values may be shown once. Values belong to the compound of their own block, whether it stands above or below them.

What was measured:
Assay in all cases: ≥ marks a high value that may be exact or a test limit, other limits are often not marked, values filed in µg/mL are converted to µM
[1] = tested on: Staphylococcus aureus BCRC 10780
[2] = tested on: Staphylococcus sp. BCRC 10451
[3] = tested on: Vibrio harveyi BCRC 13812
Vibrio alginolyticus = tested on: Vibrio alginolyticus
[4] = tested on: Streptococcus pneumoniae BCRC 10794
[5] = tested on: Salmonella enterica subsp. enterica serovar Typhimurium ATCC 14028
[6] = tested on: Escherichia coli ATCC 11219
[7] = tested on: Klebsiella pneumoniae ATCC 10031
[8] = tested on: Staphylococcus aureus ATCC 6538
[9] = tested on: Pseudomonas aeruginosa ATCC 13388
[10] = tested on: Pseudomonas aeruginosa ATCC 47085
[11] = tested on: Staphylococcus aureus ATCC 25923
[12] = tested on: Pseudomonas aeruginosa ATCC 27853
[13] = tested on: Klebsiella pneumoniae ATCC 700603
[14] = tested on: Escherichia coli ATCC 25922
[15] = tested on: Staphylococcus aureus ATCC 700699
[16] = tested on: Staphylococcus aureus ATCC 33591
[17] = tested on: Staphylococcus aureus ATCC 29213
Cladosporium herbarum = tested on: Cladosporium herbarum
Botrytis cinerea = tested on: Botrytis cinerea
[18] = tested on: Pseudomonas syringae pv. tomato DC3000
[19] = tested on: Clavibacter michiganensis subsp. michiganensis DSM 46294
[20] = tested on: Pectobacterium carotovorum subsp. carotovorum DSM 30168
Alternaria alternata = tested on: Alternaria alternata
[21] = tested on: Pseudomonas syringae pv. syringae DSM 10604
[22] = tested on: Pseudomonas corrugata DSM 7228
[23] = tested on: Xanthomonas vesicatoria DSM 50861
[24] = tested on: Staphylococcus aureus 90857
[25] = tested on: Candida tropicalis ATCC 37097
[26] = tested on: Enterococcus faecalis ATCC 29212
[27] = tested on: Candida albicans ATCC 37092
[28] = tested on: Listeria monocytogenes LO28
[29] = tested on: Cronobacter sakazakii DPC 6440

Compound: CC[C@H](C)[C@H](NC(=O)[C@H](Cc1ccccc1)NC(C)=O)C(=O)N[C@@H](Cc1ccccc1)C(=O)N[C@@H](Cc1cnc[nH]1)C(=O)N[C@H](C(=O)N[C@H](C(=O)N[C@@H](CCCCN)C(=O)NCC(=O)N[C@@H](CC(C)C)C(=O)N[C@@H](Cc1ccccc1)C(N)=O)[C@@H](C)CC)[C@@H](C)CC [FIFHIIKGLF]
MIC [1]: 5.06 µM (≈ 6.46 µg/mL) | MIC [2]: 5.06 µM (≈ 6.46 µg/mL) | MIC [3]: 5.06 µM (≈ 6.46 µg/mL) | MIC (Vibrio alginolyticus): 5.06 µM (≈ 6.46 µg/mL)

Compound: CC[C@H](C)[C@H](NC(=O)[C@H](Cc1ccccc1)NC(=O)CNC(C)=O)C(=O)N[C@@H](Cc1ccccc1)C(=O)N[C@@H](Cc1cnc[nH]1)C(N)=O [GFIFH]
MIC [1]: ≥ 161 µM | MIC [4]: ≥ 161 µM

Compound: CC[C@H](C)[C@H](NC(=O)[C@H](CCCN=C(N)N)NC(=O)[C@H](CC(C)C)NC(=O)[C@H](Cc1ccccc1)NC(=O)[C@H](CCC(=O)O)NC(=O)[C@H](CCCCN)NC(=O)[C@H](Cc1c[nH]c2ccccc12)NC(=O)[C@H](CCCCN)NC(=O)[C@H](Cc1c[nH]c2ccccc12)NC(=O)CNC(=O)[C@H](Cc1c[nH]c2ccccc12)NC(=O)[C@H](CCCCN)NC(=O)[C@H](Cc1c[nH]c2ccccc12)NC(=O)[C@H](CC(C)C)NC(=O)[C@H](CC(C)C)NC(=O)CN)C(=O)N[C@H](C(=O)NCC(=O)N[C@@H](Cc1ccc(O)cc1)C(N)=O)C(C)C [GLLWKWGWKWKEFLRIVGY]
MIC [10]: ≥ 415 µM | MIC [11]: > 415 µM

Compound: CC[C@H](C)[C@H](NC(=O)[C@H](CC(=O)O)NC(=O)[C@H](CCCCN)NC(=O)[C@H](C)NC(=O)[C@H](C)NC(=O)CNC(=O)[C@H](CCCCN)NC(=O)[C@H](C)NC(=O)[C@@H](NC(=O)[C@H](CC(=O)O)NC(=O)[C@@H](NC(=O)[C@@H](NC(=O)CN)C(C)C)C(C)C)[C@@H](C)CC)C(=O)N[C@@H](C)C(=O)NCC(=O)N[C@@H](Cc1cnc[nH]1)C(=O)N[C@@H](CC(C)C)C(=O)N[C@@H](C)C(=O)N[C@@H](CO)C(=O)N[C@@H](CCCCN)C(=O)N[C@H](C(=O)N[C@@H](CCSC)C(=O)N[C@@H](CC(N)=O)C(=O)N[C@@H](CCCCN)C(=O)N[C@@H](CC(C)C)C(N)=O)C(C)C [GVVDIAKGAAKDIAGHLASKVMNKL]
MIC [12]: > 100 µM | MIC [13]: > 100 µM | MIC [14]: > 100 µM | MIC [15]: ≥ 100 µM | MIC [16]: ≥ 100 µM | MIC [17]: > 100 µM

Compound: CC(C)C[C@H](NC(=O)[C@@H](N)CCCN=C(N)N)C(=O)N[C@@H](Cc1ccc(O)cc1)C(=O)N[C@@H](CCCN=C(N)N)C(N)=O [RLYR]
MIC [25]: 1.3 µM and 1.8 µM | MIC [26]: 4.7 µM and 10.2 µM | MIC [14]: 6.1 µM and 10.2 µM | MIC [27]: 10 µM and 6.4 µM | MIC [17]: 4.5 µM and 10.2 µM

Compound: CC[C@H](C)[C@H](NC(=O)[C@@H](N)Cc1c[nH]c2ccccc12)C(=O)N[C@@H](CCC(N)=O)C(=O)N1CCC[C@H]1C(=O)N[C@@H](CCCCN)C(=O)N[C@H](C(=O)N[C@@H](CCCCN)C(=O)N[C@@H](C)C(=O)N[C@H](C(=O)N1CCC[C@H]1C(=O)N[C@@H](Cc1ccc(O)cc1)C(=O)N[C@H](C(=O)N[C@@H](CCCN=C(N)N)C(=O)N[C@@H](Cc1ccc(O)cc1)C(=O)N[C@@H](CC(C)C)C(=O)O)C(C)C)[C@@H](C)CC)[C@@H](C)O [WIQPKTKAIPYVRYL]
MIC [28]: 19.5 µM (≈ 36.6 µg/mL) | MIC [29]: ≥ 78.1 µM

Compound: CC[C@H](C)[C@H](NC(=O)[C@@H](N)Cc1c[nH]c2ccccc12)C(=O)N[C@@H](CCC(N)=O)C(=O)N1CCC[C@H]1C(=O)N[C@@H](CCCCN)C(=O)N[C@H](C(=O)N[C@@H](CCCCN)C(=O)N[C@H](C(=O)N[C@H](C(=O)N1CCC[C@H]1C(=O)N[C@@H](Cc1ccc(O)cc1)C(=O)N[C@H](C(=O)O)C(C)C)[C@@H](C)CC)C(C)C)[C@@H](C)O [WIQPKTKVIPYV]
MIC [28]: ≥ 156 µM | MIC [29]: ≥ 625 µM

Other lines, results leading:

MIC [5]: 10 µM (≈ 13.4 µg/mL) | MIC [6]: 5 µM (≈ 6.7 µg/mL) | MIC [7]: 10 µM (≈ 13.4 µg/mL) | MIC [8]: 10 µM (≈ 13.4 µg/mL) | MIC [9]: 15 µM (≈ 20.1 µg/mL)
Compound: CC[C@H](C)[C@H](NC(=O)CN)C(=O)N[C@@H](Cc1cnc[nH]1)C(=O)N[C@@H](CC(=O)O)C(=O)N[C@H](C(=O)N[C@@H](CC(C)C)C(=O)N[C@@H](CCCCN)C(=O)N[C@@H](Cc1ccc(O)cc1)C(=O)N[C@@H](C)C(=O)N[C@@H](CCCCN)C(=O)N1CCC[C@H]1C(=O)N[C@@H](CO)C(N)=O)[C@@H](C)CC [GIHDILKYAKPS]

MIC [5]: 5 µM (≈ 6.73 µg/mL) | MIC [6]: 5 µM (≈ 6.73 µg/mL) | MIC [7]: 5 µM (≈ 6.73 µg/mL) | MIC [8]: 10 µM (≈ 13.5 µg/mL) | MIC [9]: 20 µM (≈ 26.9 µg/mL)
Compound: CC[C@H](C)[C@H](NC(=O)CN)C(=O)N[C@@H](CCCN=C(N)N)C(=O)N[C@@H](CC(=O)O)C(=O)N[C@H](C(=O)N[C@@H](CC(C)C)C(=O)N[C@@H](CCCCN)C(=O)N[C@@H](Cc1ccc(O)cc1)C(=O)NCC(=O)N[C@@H](CCCCN)C(=O)N1CCC[C@H]1C(=O)N[C@@H](CO)C(N)=O)[C@@H](C)CC [GIRDILKYGKPS]

MIC (Cladosporium herbarum): 29.5 µM (≈ 40 µg/mL) | MIC (Botrytis cinerea): ≥ 73.9 µM | MIC [18]: 7.39 µM (≈ 9.99 µg/mL) | MIC [19]: 29.5 µM (≈ 40 µg/mL) | MIC [20]: 29.5 µM (≈ 40 µg/mL) | MIC (Alternaria alternata): ≥ 73.9 µM | MIC [21]: 29.5 µM (≈ 40 µg/mL) | MIC [22]: 29.5 µM (≈ 40 µg/mL) | MIC [23]: 29.5 µM (≈ 40 µg/mL)
Compound: CC(C)C[C@H](NC(=O)[C@H](C)NC(=O)[C@H](CCCN=C(N)N)NC(=O)[C@H](CCCCN)NC(=O)[C@H](CC(C)C)NC(=O)[C@H](C)NC(=O)[C@H](CCCN=C(N)N)NC(=O)[C@H](C)NC(=O)[C@H](C)NC(=O)[C@H](CCCCN)NC(=O)[C@H](CCCCN)NC(=O)[C@@H](N)CCCCN)C(N)=O [KKKAARALKRAL]

MIC [24]: ≥ 62.5 µM | MIC (Cladosporium herbarum): 28 µM (≈ 40 µg/mL) | MIC (Botrytis cinerea): ≥ 70 µM | MIC [18]: 28 µM (≈ 40 µg/mL) | MIC [19]: 28 µM (≈ 40 µg/mL) | MIC [20]: 28 µM (≈ 40 µg/mL) | MIC (Alternaria alternata): ≥ 70 µM | MIC [21]: 28 µM (≈ 40 µg/mL) | MIC [22]: 28 µM (≈ 40 µg/mL) | MIC [23]: 28 µM (≈ 40 µg/mL)
Compound: CC[C@H](C)[C@H](NC(=O)[C@H](CC(C)C)NC(=O)[C@@H](N)CC(C)C)C(=O)N[C@@H](CCCN=C(N)N)C(=O)N[C@@H](C)C(=O)N[C@@H](C)C(=O)N[C@@H](CCCCN)C(=O)N[C@@H](CCCCN)C(=O)N[C@@H](Cc1ccccc1)C(=O)N[C@H](C(=O)N[C@@H](CCCCN)C(=O)N[C@@H](CCCCN)C(N)=O)[C@@H](C)CC [LLIRAAKKFIKK]

MIC [24]: 0.625 µM (≈ 0.94 µg/mL) | MIC [18]: 0.332 µM (≈ 0.5 µg/mL) | MIC [19]: 0.166 µM (≈ 0.25 µg/mL) | MIC [20]: 0.664 µM (≈ 0.999 µg/mL) | MIC [21]: 0.0664 µM (≈ 0.0999 µg/mL) | MIC [22]: 0.332 µM (≈ 0.5 µg/mL) | MIC [23]: 0.166 µM (≈ 0.25 µg/mL)
Compound: CC(C)C[C@H](NC(=O)[C@H](C)NC(=O)[C@H](CCCCN)NC(=O)[C@H](CCCCN)NC(=O)[C@H](CC(C)C)NC(=O)[C@H](Cc1ccccc1)NC(=O)[C@H](CCCN=C(N)N)NC(=O)[C@@H](N)CC(C)C)C(=O)N[C@@H](CCCCN)C(=O)N[C@@H](CCCCN)C(=O)N[C@@H](CC(C)C)C(=O)N[C@@H](Cc1ccccc1)C(N)=O [LRFLKKALKKLF]
